The results in this text go back to paper PMC11284340 (FASEB journal : official publication of the Federation of …, 2024).

Data set [1] has as its target T1, Drosophila insulin receptor kinase domain (D-IRK) (Drosophila melanogaster, UniProt P09208).
T1 sequence (P09208 1358-1672): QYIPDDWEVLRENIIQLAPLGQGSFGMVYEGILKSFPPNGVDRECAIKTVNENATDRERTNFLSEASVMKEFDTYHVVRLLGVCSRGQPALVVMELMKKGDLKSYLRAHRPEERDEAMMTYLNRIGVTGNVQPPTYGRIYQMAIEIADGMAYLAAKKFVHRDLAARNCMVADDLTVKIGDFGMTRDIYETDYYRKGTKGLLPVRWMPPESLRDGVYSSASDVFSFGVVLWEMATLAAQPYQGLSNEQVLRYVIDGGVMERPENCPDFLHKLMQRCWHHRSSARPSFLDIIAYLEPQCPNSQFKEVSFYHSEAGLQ
Put plainly: [γ-32P]-ATP phosphocellulose kinase assay. The note with it: read-out: % inhibition at 10 μM. The data set is classed as biochemical.

For data set [2], the target named is T1, Drosophila insulin receptor kinase domain (D-IRK). Put plainly: [γ-32P]-ATP phosphocellulose kinase assay at […]. The data set is classed as biochemical. The note with it: read-out: % inhibition at 10 μM.
Substrate in data set [3]: Nc1ncnc2c1ncn2[C@@H]1O[C@H](COP(=O)(O)OP(=O)(O)OP(=O)(O)O)[C@@H](O)[C@H]1O
Briefly: continuous spectrophotometric coupled assay, Km. To be noted: Mg2+ ATP-binding site. Format: biochemical, Drosophila melanogaster.

For the molecule `CN[C@@H]1C[C@H]2O[C@@](C)([C@@H]1OC)n1c3ccccc3c3c4c(c5c6ccccc6n2c5c31)C(=O)NC4` [Staurosporine], in data set [1], the inhibition at 10 µM amounted to 98%.

As to `COc1cc2c(Nc3ccc(Br)cc3F)ncnc2cc1OCC1CCN(C)CC1` [Vandetanib], in data set [2], the inhibition at 10 µM is about 70%.

B1: Drosophila insulin receptor kinase domain (D-IRK) (Drosophila melanogaster) (protein)
chain: QYIPDDWEVLRENIIQLAPLGQGSFGMVYEGILKSFPPNGVDRECAIKTVNENATDRERTNFLSEASVMKEFDTYHVVRLLGVCSRGQPALVVMELMKKGDLKSYLRAHRPEERDEAMMTYLNRIGVTGNVQPPTYGRIYQMAIEIADGMAYLAAKKFVHRDLAARNCMVADDLTVKIGDFGMTRDIYETDYYRKGTKGLLPVRWMPPESLRDGVYSSASDVFSFGVVLWEMATLAAQPYQGLSNEQVLRYVIDGGVMERPENCPDFLHKLMQRCWHHRSSARPSFLDIIAYLEPQCPNSQFKEVSFYHSEAGLQ
As for B1, the Km in data set [3] stood at 1350 ± 170 µM.

For orientation: inhibition means the share of the control response that was lost under treatment. One may read the Km as the substrate concentration at which the rate is half of its maximum.
